This note sets out measurements from patent US11376271B1, “Methods of ameliorating the effects of alcoholic liver damage” (FULGENT LIFE INC., priority 2021, dated 2022).

Assay [1] concerns AML12 cells. Kind of assay: NAD+/NADH ratio in AML12 cells. Conditions: 1 mM, 6 h, vs control.
For assay [2], the system named is AML12 cells. Description: Rescue from hydrogen peroxide (HP) genotoxicity: cell survival and NAD+ level. Format: cell-based. The following applies: 500 μM HP + 250 μM compound, 3 h, AML12 cells. How it is done:
Because the increasing extent of NAD+ concentration is of interest, whether NADH can improve the cell survival rate under the stressful conditions of depletion of NAD+ was also assessed. To that end, as genotoxicity can lead to DNA damage, activate poly(ADP-ribose) polymerases and induce NAD+ depletion, genotoxicity was tested. Strong genotoxicity will lead to severe consumption of NAD+ by cells, resulting in cell death. To test genotoxicity, AML12 cells were treated with 500 μM hydrogen peroxide (HP) for 3 hours in the presence or absence of 1 mM NADH, and then the cells were counted and NAD+ was detected in the samples co-treated with NADH (1 mM) or its vehicle. FIG. 4A is a graph comparing the cell survival rate of the HP treated cells, NADH treated cells, and the HP+NADH treated cells relative to a control. And FIG. 4B is a graph comparing the NAD+ level of the HP treated cells, NADH treated cells, and the HP+NADH treated cells relative to a control. The cell survival rates and cellular NAD+ levels in FIGS. 4A-B are expressed as mean±SD.
The effects of NADH and NMN at a lower concentration (250 μM) on AML12 cells was also tested in a separate assay. Specifically, AML12 cells were treated with 500 μM HP in the presence or absence of 250 μm NADH or NMN for 3 h. FIG. 4C is a graph comparing the cell survival rate of the HP treated cells, HP+NADH treated cells, and the HP+NMN treated cells relative to a control. And FIG. 4D is a graph comparing the NAD+ level of the HP treated cells, HP+NADH treated cells, and the HP+NMN treated cells relative to a control. The cell survival rate and cellular NAD+ levels in FIGS. 4C-D are expressed as mean±SD.

Assay [3] concerns male C57BL/6J mice. Kind of assay: Tissue NAD+ content after intraperitoneal injection. In kind it is in vivo. Conditions: 250 mg/kg intraperitoneal, 4 hours. As for the experimental part: In the below in vivo assays, C57BL/6J male mice (The Jackson Laboratory) (40 days of age) were used. They were kept under standard laboratory conditions with a temperature of 22±1° C., dark/light cycles of 12/12 h, and relative humidity of 55±5%. All animals had free access to food and water, except for indicated fasting periods (and where not indicated for fasting periods of 2 hours before administration).
[…] Specifically, ten 8-week-old male C57BL/6J mice (The Jackson Laboratory) were kept in polycarbonate cages under a 12-h light/dark cycle with free access to food and water. […] Four hours later, the blood samples were collected by cardiac puncture and the mice were executed. Liver, brain, muscle, and adipose tissues were collected, instantly frozen in liquid nitrogen, and then stored at −80° C. until performance of the NAD+ analyses. […] Four hours later, the mice were killed and tissue samples were collected. All animal studies were performed according to the Guidelines for the Care and Use of Experimental Animals. For this NAD+ assay, about 100 mg of frozen tissue was crushed in liquid nitrogen and ultrasonically homogenized in 7% perchloric acid, and then the solution was neutralized and subjected to the NAD+ determination described here.
Data are indicated as mean±SD.

`NC(=O)c1ccc[n+]([C@@H]2O[C@H](COP(=O)([O-])O)[C@@H](O)[C@H]2O)c1` [NMN, nicotinamide mononucleotide, reference compound]: in assay [1], the “NAD+/NADH ratio” value is “significantly increase”. Besides, in assay [2], the “effect on NAD+ levels under HP” value is listed as “much worse than that of NADH” and the “effect on cell survival under HP” value was “much worse than that of NADH”. The “increase of the concentration of NAD+ in the liver” value in assay [3] was 170%.
